This note sets out measurements from US20250235460A1, “COMBINATION THERAPY USING GLUCOSE-DEPENDENT INSULINOTROPIC POLYPEPTIDE RECEPTOR ANTAGONIST COMPOUNDS AND GLP-1 RECEPTOR AGONIST COMPOUNDS” (Pfizer Inc., priority 2024, published 2025).

The target of test [1] is human GLP-1R (Homo sapiens, UniProt P43220, G168S). In words: CHO GLP-1R Clone H6 cAMP HTRF agonist assay (Assay 1, high receptor density). The class given is cell-based. The conditions noted are these: for EC50: geometric mean; for Emax: CHO GLP-1R clone H6, arithmetic mean, relative to saturating GLP-1 (1 μM), read-out: Assay 1 Emax (%). The gist of the method: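 Two significant figures are used throughout. Each EC50 is the geometric mean of its replicates, and each Emax is the arithmetic mean.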

Test [2] concerns the target human GLP-1R (Homo sapiens, UniProt P43220, L260F). In words: CHO GLP-1R Clone C6 cAMP HTRF agonist assay (Assay 2, low receptor density). The class given is cell-based. The conditions noted are these: for EC50: geometric mean; for Emax: CHO GLP-1R clone C6, arithmetic mean, relative to saturating GLP-1 (1 μM). From the text: In Table 5 and Table 6, assay data are presented to two (2) significant figures as the geometric mean (EC50s) and arithmetic mean (Emax) based on the number of replicates listed (Number). A blank cell means there was no data for that Example or the Emax was not calculated.
A general note: Time-resolved FRET reads energy transfer from a long-lived donor to a nearby acceptor.

human GLP-1R (Homo sapiens, UniProt P43220, L260F), sequence (P43220 24-463 L260F): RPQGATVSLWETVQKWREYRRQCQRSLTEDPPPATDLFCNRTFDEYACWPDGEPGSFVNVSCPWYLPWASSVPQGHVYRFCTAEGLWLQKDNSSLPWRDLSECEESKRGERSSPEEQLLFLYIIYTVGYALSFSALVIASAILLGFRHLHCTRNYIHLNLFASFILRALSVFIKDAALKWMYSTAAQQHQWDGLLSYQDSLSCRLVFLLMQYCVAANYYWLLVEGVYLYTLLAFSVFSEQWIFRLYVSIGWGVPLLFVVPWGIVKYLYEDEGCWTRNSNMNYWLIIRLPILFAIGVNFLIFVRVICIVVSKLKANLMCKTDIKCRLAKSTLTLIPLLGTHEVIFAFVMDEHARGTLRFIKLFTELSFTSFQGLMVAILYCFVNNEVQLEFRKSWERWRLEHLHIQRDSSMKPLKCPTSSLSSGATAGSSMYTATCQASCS
human GLP-1R (Homo sapiens, UniProt P43220, G168S), sequence (P43220 24-463 G168S): as the sequence (P43220 24-463 L260F) above, with G145S, F237L counted along it

A word on the EC50: it is the concentration needed to bring the measured effect to its halfway point. Low values mean higher potency in that assay, high ones lower potency in that assay. Usually Emax stands for the greatest response seen or fitted, relative to the assay's reference. As for `O=C(O)c1ccc2nc(CN3CCC(c4cccc(OCc5ccc(Cl)cc5F)n4)CC3)n(Cc3cn[nH]c3)c2c1` [Compound 290B, 2-[(4-{6-[(4-chloro-2-fluorobenzyl)oxy]pyridin-2-yl}piperidin-1-yl)methyl]-1-(1H-pyrazol-4-ylmethyl)-1H-benzimidazole-6-carboxylic acid], the EC50 came out at 44 nM on human GLP-1R [1] (CHO GLP-1R clone H6, cAMP HTRF) and 490 nM on human GLP-1R [2] (CHO GLP-1R clone C6, cAMP HTRF). In addition, the Emax at human GLP-1R [1] was 72%; at human GLP-1R [2], 98%.

For the molecule `CCn1cncc1Cn1c(CN2CCC(c3cccc(OCc4ccc(F)cc4F)n3)CC2)nc2ccc(C(=O)O)cc21` [Compound 150B, 2-[(4-{6-[(2,4-difluorobenzyl)oxy]pyridin-2-yl}piperidin-1-yl)methyl]-1-[(1-ethyl-1H-imidazol-5-yl)methyl]-1H-benzimidazole-6-carboxylic acid], the EC50 is 110 nM on human GLP-1R [1] (CHO GLP-1R clone H6, cAMP HTRF) and 3000 nM on human GLP-1R [2] (CHO GLP-1R clone C6, cAMP HTRF). Moreover, the Emax on human GLP-1R [1] amounted to 71%; at human GLP-1R [2] it was 92%.

`COCCn1c(CN2CCC(c3cccc(OCc4ccc(Cl)cc4F)n3)CC2)nc2ncc(C(=O)O)nc21` [Compound 207B, 2-[(4-{6-[(4-chloro-2-fluorobenzyl)oxy]pyridin-2-yl}piperidin-1-yl)methyl]-1-(2-methoxyethyl)-1H-imidazo[4,5-b]pyrazine-6-carboxylic acid]: the EC50 was 5.7 nM on human GLP-1R [1] (CHO GLP-1R clone H6, cAMP HTRF) and 130 nM on human GLP-1R [2] (CHO GLP-1R clone C6, cAMP HTRF). For the same molecule, the Emax is 78% at human GLP-1R [1] and 94% on human GLP-1R [2].

For the molecule `O=C(O)c1ccc2nc(CN3CCC(c4cccc(OCc5ccc(F)cc5F)n4)CC3)n(C[C@@H]3CCO3)c2c1` [Compound 117B, 2-[(4-{6-[(2,4-difluorobenzyl)oxy]pyridin-2-yl}piperidin-1-yl)methyl]-1-[(2S)-oxetan-2-ylmethyl]-1H-benzimidazole-6-carboxylic acid], the EC50 on human GLP-1R [1] (CHO GLP-1R clone H6, cAMP HTRF) came to 19 nM; on human GLP-1R [2] (CHO GLP-1R clone C6, cAMP HTRF), 530 nM. In addition, the Emax at human GLP-1R [1] stood at 76%; at human GLP-1R [2], 97%.

With `N#Cc1ccc(COc2nc(C3CCN(Cc4nc5ccc(C(=O)O)cc5n4CC4CCOC4)CC3)ccc2F)cc1` (stereo not shown) [Compound 361B, 2-[(4-{6-[(4-cyanobenzyl)oxy]-5-fluoropyridin-2-yl}piperidin-1-yl)methyl]-1-(tetrahydrofuran-3-ylmethyl)-1H-benzimidazole-6-carboxylic acid], the results for the Emax on human GLP-1R [1] and on human GLP-1R [2] were 73% and 81%, respectively.

`COCCn1c(CN2CC[C@H](c3cccc(OCc4ccc(Cl)cc4F)n3)C[C@H]2C)nc2ccc(C(=O)O)cc21` (relative stereo) [Compound 357B, trans 2-{[4-{6-[(4-Chloro-2-fluorobenzyl)oxy]pyridin-2-yl}-2-methylpiperidin-1-yl]methyl}-1-(2-methoxyethyl)-1H-benzimidazole-6-carboxylic acid]: the 50% effective concentration (EC50) at human GLP-1R [1] (CHO GLP-1R clone H6, cAMP HTRF) turned out to be 28 nM; on human GLP-1R [2] (CHO GLP-1R clone C6, cAMP HTRF), 350 nM. Besides, the Emax came to 82% at human GLP-1R [1] and 70% on human GLP-1R [2].

With `[2H]C([2H])(Oc1cccc(C2CCN(Cc3nc4ccc(C(=O)O)cc4n3C[C@@H]3CCO3)CC2)n1)c1ccc(C#N)cc1F` [Compound 112B, 2-{[4-(6-{[(4-cyano-2-fluorophenyl)(methyl-d2)]oxy}pyridin-2-yl)piperidin-1-yl]methyl}-1-[(2S)-oxetan-2-ylmethyl]-1H-benzimidazole-6-carboxylic acid], the Emax worked out at 84% on human GLP-1R [1] and 70% at human GLP-1R [2].

As to `O=C(O)c1cc2c(cn1)nc(CN1CCC(c3cccc(OCc4ccc(Cl)cc4F)n3)CC1)n2Cc1ncco1` [Compound 204B, 2-[(4-{6-[(4-chloro-2-fluorobenzyl)oxy]pyridin-2-yl}piperidin-1-yl)methyl]-1-(1,3-oxazol-2-ylmethyl)-1H-imidazo[4,5-c]pyridine-6-carboxylic acid], the EC50 was 18 nM at human GLP-1R [1] (CHO GLP-1R clone H6, cAMP HTRF) and 400 nM at human GLP-1R [2] (CHO GLP-1R clone C6, cAMP HTRF). The maximum response (Emax) is 88% on human GLP-1R [1] and 100% at human GLP-1R [2].

On to `CCn1cncc1Cn1c(CN2CCC(c3cccc4c3OC(C)(c3ccc(Cl)cc3F)O4)CC2)nc2ccc(C(=O)O)cc21` (single isomer, unassigned; ent-1) [Compound 21B, Ammonium 2-({4-[2-(4-chloro-2-fluorophenyl)-2-methyl-1,3-benzodioxol-4-yl]piperidin-1-yl}methyl)-1-[(1-ethyl-1H-imidazol-5-yl)methyl]-1H-benzimidazole-6-carboxylate, ENT-1], for which the concentration for a half-maximal effect (EC50) is 0.079 nM on human GLP-1R [1] (CHO GLP-1R clone, cAMP HTRF) and 1.1 nM on human GLP-1R [2] (CHO GLP-1R clone, low receptor density, cAMP HTRF).

`CCn1nncc1Cn1c(CN2CCN(c3cccc(OCc4ccc(C#N)cc4F)n3)CC2)nc2ccc(C(=O)O)cc21` [Compound 159B, 2-[(4-{6-[(4-cyano-2-fluorobenzyl)oxy]pyridin-2-yl}piperazin-1-yl)methyl]-1-[(1-ethyl-1H-1,2,3-triazol-5-yl)methyl]-1H-benzimidazole-6-carboxylic acid]: the EC50 at human GLP-1R [1] (CHO GLP-1R clone H6, cAMP HTRF) is 0.5 nM; at human GLP-1R [2] (CHO GLP-1R clone C6, cAMP HTRF), 22 nM. Moreover, the maximum response (Emax) at human GLP-1R [1] is 73%.

For `O=C(O)c1ccc2nc(CN3CCC(c4cccc(OCc5ccc(Cl)cc5F)n4)CC3)n(Cc3ccon3)c2c1` [Compound 344B, 2-[(4-{6-[(4-chloro-2-fluorobenzyl)oxy]pyridin-2-yl}piperidin-1-yl)methyl]-1-(1,2-oxazol-3-ylmethyl)-1H-benzimidazole-6-carboxylic acid], the concentration giving a half-maximal response (EC50) at human GLP-1R [1] (CHO GLP-1R clone H6, cAMP HTRF) was found to be 37 nM; on human GLP-1R [2] (CHO GLP-1R clone C6, cAMP HTRF), 1200 nM. Also, the Emax on human GLP-1R [1] is 69%; at human GLP-1R [2] it was 83%.

`COCCn1c(CN2CCN(c3cccc(OCc4ccc(Cl)cc4F)n3)[C@@H](CO)C2)nc2ccc(C(=O)O)cc21` [Compound 185B, 2-{[(3R)-4-{6-[(4-chloro-2-fluorobenzyl)oxy]pyridin-2-yl}-3-(hydroxymethyl)piperazin-1-yl]methyl}-1-(2-methoxyethyl)-1H-benzimidazole-6-carboxylic acid]: the EC50 at human GLP-1R [1] (CHO GLP-1R clone H6, cAMP HTRF) was 0.34 nM; at human GLP-1R [2] (CHO GLP-1R clone C6, cAMP HTRF) it was 2.2 nM. For the same molecule, the figures for the Emax at human GLP-1R [1] and at human GLP-1R [2] were 89% and 97%, respectively.

Take `COCCn1cnnc1Cn1c(CN2CCC(c3cccc(OCc4ccc(Cl)cc4F)n3)CC2)nc2ccc(C(=O)O)cc21` [Compound 294B, 2-[(4-{6-[(4-chloro-2-fluorobenzyl)oxy]pyridin-2-yl}piperidin-1-yl)methyl]-1-{[4-(2-methoxyethyl)-4H-1,2,4-triazol-3-yl]methyl}-1H-benzimidazole-6-carboxylic acid]: the 50% effective concentration (EC50) is 72 nM at human GLP-1R [1] (CHO GLP-1R clone H6, cAMP HTRF) and 1500 nM on human GLP-1R [2] (CHO GLP-1R clone C6, cAMP HTRF). For the same molecule, the Emax on human GLP-1R [1] stood at 76%; at human GLP-1R [2], 81%.

As for `Cn1cnc(Cn2c(CN3CCC(c4cccc(OCc5ccc(Cl)cc5F)n4)CC3)nc3ccc(C(=O)O)cc32)c1` [Compound 255B, 2-[(4-{6-[(4-chloro-2-fluorobenzyl)oxy]pyridin-2-yl}piperidin-1-yl)methyl]-1-[(1-methyl-1H-imidazol-4-yl)methyl]-1H-benzimidazole-6-carboxylic acid], the EC50 is 190 nM at human GLP-1R [1] (CHO GLP-1R clone H6, cAMP HTRF) and 5800 nM on human GLP-1R [2] (CHO GLP-1R clone C6, cAMP HTRF). Also, the Emax was 62% at human GLP-1R [1] and 85% at human GLP-1R [2].

As for `CC1(Cn2c(CN3CCC(c4cccc(OCc5ccc(Cl)cc5F)n4)CC3)nc3ccc(C(=O)O)cc32)COC1` [Compound 251B, 2-[(4-{6-[(4-chloro-2-fluorobenzyl)oxy]pyridin-2-yl}piperidin-1-yl)methyl]-1-[(3-methyloxetan-3-yl)methyl]-1H-benzimidazole-6-carboxylic acid], the EC50 was determined as 0.59 nM at human GLP-1R [1] (CHO GLP-1R clone H6, cAMP HTRF) and 6.8 nM at human GLP-1R [2] (CHO GLP-1R clone C6, cAMP HTRF). The Emax on human GLP-1R [1] came out at 83%; on human GLP-1R [2], 93%.

As for `N#Cc1ccc(COc2cccc(C3CCN(Cc4nc5ccc(C(=O)O)cc5n4C[C@H]4CCCO4)CC3)n2)cc1` [Compound 132B, 2-[(4-{6-[(4-cyanobenzyl)oxy]pyridin-2-yl}piperidin-1-yl)methyl]-1-[(2R)-tetrahydrofuran-2-ylmethyl]-1H-benzimidazole-6-carboxylic acid], the EC50 on human GLP-1R [1] (CHO GLP-1R clone H6, cAMP HTRF) came to 70 nM; at human GLP-1R [2] (CHO GLP-1R clone C6, cAMP HTRF), 1800 nM. In addition, the values for the Emax at human GLP-1R [1] and on human GLP-1R [2] were 80% and 85%, respectively.

For the molecule `CN1CCOC(CCn2c(CN3CCC(c4cccc(OCc5ccc(Cl)cc5F)n4)CC3)nc3ccc(C(=O)O)cc32)C1` (stereo not shown) [Compound 286B, 2-[(4-{6-[(4-chloro-2-fluorobenzyl)oxy]pyridin-2-yl}piperidin-1-yl)methyl]-1-[2-(4-methylmorpholin-2-yl)ethyl]-1H-benzimidazole-6-carboxylic acid], the EC50 is 25 nM at human GLP-1R [1] (CHO GLP-1R clone H6, cAMP HTRF) and 330 nM at human GLP-1R [2] (CHO GLP-1R clone C6, cAMP HTRF). Further, the maximal effect (Emax) came to 78% on human GLP-1R [1] and 96% at human GLP-1R [2].
